Measurements as given in patent US6737383B1, “Herbicidal oxadiazolidines” (priority 1999, dated 2004).

Experiments:
corn = experiment: Test B pre/postemergence corn; format: in vivo, Zea mays
How it was run: (§1)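 Response is a visual 0-to-10 score relative to untreated plants, where 0 means no effect and 10 means complete control, taken twelve to sixteen days after application. Treatments went onto soil at planting and onto foliage of 1- to 4-leaf plants, using a surfactant-containing non-phytotoxic solvent.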

morningglory = experiment: Test B pre/postemergence morningglory; format: in vivo, Ipomoea hederacea
How it was run: as §1

surinam grass = experiment: Test B pre/postemergence surinam grass; format: in vivo, Brachiaria decumbens
How it was run: as §1

velvetleaf = experiment: Test B pre/postemergence velvetleaf; format: in vivo, Abutilon theophrasti; settings: for Plant response rating, Velvetleaf: Postemergence
How it was run: as §1

giant foxtail = experiment: Test B pre/postemergence giant foxtail; format: in vivo, Setaria faberii
How it was run: as §1

purple nutsedge = experiment: Test B pre/postemergence purple nutsedge; format: in vivo, Cyperus rotundus
How it was run: as §1

sugar beet = experiment: Test B pre/postemergence sugar beet; format: in vivo, Beta vulgaris; settings: for Plant response rating, Sugarbeets: Postemergence
How it was run: as §1

wild oat = experiment: Test B pre/postemergence wild oat; format: in vivo, Avena fatua; settings: for Plant response rating, Wild oats: Postemergence
How it was run: as §1

bedstraw = experiment: Test B pre/postemergence bedstraw; format: in vivo, Galium aparine; settings: Preemergence
How it was run: as §1

rape = experiment: Test B pre/postemergence rape; format: in vivo, Brassica napus
How it was run: as §1

crabgrass = experiment: Test B pre/postemergence crabgrass; format: in vivo, Digitaria sanguinalis
How it was run: as §1

soybean = experiment: Test B pre/postemergence soybean; format: in vivo, Glycine max; settings: for Plant response rating, Soybean: Postemergence
How it was run: as §1

wheat = experiment: Test B pre/postemergence wheat; format: in vivo, Triticum aestivum; settings: for Plant response rating, Wheat: Postemergence
How it was run: as §1

cocklebur = experiment: Test B pre/postemergence cocklebur; format: in vivo, Xanthium strumarium
How it was run: as §1

pigweed = experiment: Test B pre/postemergence pigweed; format: in vivo, Amaranthus retroflexus; settings: for Plant response rating, Redroot pigweed: Postemergence; for Redroot pigweed plant response rating: Preemergence
How it was run: as §1

blackgrass = experiment: Test B pre/postemergence blackgrass; format: in vivo, Alopecurus myosuroides
How it was run: as §1

[1] = Postemergence, Rate 62 g/ha, scale of 0 to 10, 0 is no effect, 10 is complete control
[2] = Postemergence, Rate 125 g/ha, scale 0 to 10, 0 is no effect, 10 is complete control
[3] = Postemergence, Rate 500 g/ha, scale of 0 to 10 where 0 is no effect and 10 is complete control
[4] = Preemergence, Rate 62 g/ha, scale 0 to 10 (0 no effect, 10 complete control)
[5] = Preemergence, Rate 125 g/ha, scale 0 to 10, 0 is no effect, 10 is complete control
[6] = Preemergence, Rate 500 g/ha, scale of 0 to 10 where 0 is no effect and 10 is complete control
[7] = Rate 250 g/ha, Postemergence, scale of 0 to 10 where 0 is no effect and 10 is complete control
[8] = Rate 500 g/ha, scale of 0 to 10 where 0 is no effect and 10 is complete control
[9] = Rate 250 g/ha, scale of 0 to 10 where 0 is no effect and 10 is complete control
[10] = Rate 62 g/ha, scale 0 to 10 (0 no effect, 10 complete control)
[11] = Rate 125 g/ha, scale 0 to 10, 0 is no effect, 10 is complete control

In the case of `CC(C)=CCn1c(=O)on(C(=O)N(c2ccccc2)C(C)C)c1=O` [Compound 574], the “Corn plant response rating” value (corn; [1]) is reported as 0, the “Corn plant response rating” value (corn; [2]) is reported as 0 and the “Plant response rating, Corn” value (corn; [3]) is reported as 0. The “Corn plant response rating” value (corn; [4]) was 0, the “Corn plant response rating” value (corn; [5]) was 0 and the “Corn plant response rating (0 to 10 scale)” value (corn; Preemergence, Rate 250 g/ha) was 0. For the same molecule, the “Corn plant response rating” value (corn; [6]) was 0, the “Plant response rating, Corn” value (corn; [7]) was 0 and the “Morningglory plant response rating” value (morningglory; [1]) was 10. For the same molecule, the “Morningglory plant response rating” value (morningglory; [2]) was 10, the “Plant response rating, Morningglory” value (morningglory; [3]) was 10 and the “Morningglory plant response rating” value (morningglory; [4]) was 0. The “Morningglory plant response rating” value (morningglory; [5]) was 0, the “Morningglory plant response rating (0 to 10 scale)” value (morningglory; Preemergence, Rate 250 g/ha) was 0 and the “Morningglory plant response rating” value (morningglory; [6]) was 0. For the same molecule, the “Plant response rating, Morningglory” value (morningglory; [7]) was 10, the “B. signalgrass plant response rating” value (surinam grass; [1]) was 0 and the “B. signalgrass plant response rating” value (surinam grass; [2]) was 0. For the same molecule, the “Plant response rating, B. signalgrass” value (surinam grass; [3]) was 0, the “B. signalgrass plant response rating” value (surinam grass; [4]) was 4 and the “B. signalgrass plant response rating” value (surinam grass; [5]) was 7. The “B. signalgrass plant response rating (0 to 10 scale, 0 is no effect, 10 is complete control)” value (surinam grass; Preemergence, Rate 250 g/ha) was 10, the “B. signalgrass plant response rating” value (surinam grass; [6]) was 9 and the “Plant response rating, B. signalgrass” value (surinam grass; [7]) was 0. The “Plant response rating, Velvetleaf” value (velvetleaf; [8]) was 2, the “Velvetleaf plant response rating” value (velvetleaf; [4]) was 0 and the “Velvetleaf plant response rating” value (velvetleaf; [5]) was 0. For the same molecule, the “Velvetleaf plant response rating (0 to 10 scale)” value (velvetleaf; Preemergence, Rate 250 g/ha) was 2, the “Velvetleaf plant response rating” value (velvetleaf; [6]) was 2 and the “Plant response rating, Velvetleaf” value (velvetleaf; [9]) was 2. For the same molecule, the “Giant foxtail plant response rating” value (giant foxtail; [1]) was 2, the “Giant foxtail plant response rating” value (giant foxtail; [2]) was 7 and the “Plant response rating, Giant foxtail” value (giant foxtail; [3]) was 8. The “Giant foxtail plant response rating” value (giant foxtail; [4]) was 9, the “Giant foxtail plant response rating” value (giant foxtail; [5]) was 10 and the “Giant foxtail plant response rating (0 to 10 scale)” value (giant foxtail; Preemergence, Rate 250 g/ha) was 10. For the same molecule, the “Giant foxtail plant response rating” value (giant foxtail; [6]) was 10, the “Plant response rating, Giant foxtail” value (giant foxtail; [7]) was 6 and the “Nutsedge plant response rating” value (purple nutsedge; [1]) was 0. The “Plant response rating, Nutsedge” value (purple nutsedge; [3]) was 0, the “Nutsedge plant response rating” value (purple nutsedge; [4]) was 0 and the “Nutsedge plant response rating” value (purple nutsedge; [5]) was 0. The “Nutsedge plant response rating (0 to 10 scale)” value (purple nutsedge; Preemergence, Rate 250 g/ha) was 0, the “Nutsedge plant response rating” value (purple nutsedge; [6]) was 0 and the “Plant response rating, Nutsedge” value (purple nutsedge; [7]) was 0. The “Plant response rating, Sugarbeets” value (sugar beet; [8]) was 0, the “Sugarbeets plant response rating” value (sugar beet; [4]) was 0 and the “Sugarbeets plant response rating” value (sugar beet; [5]) was 0. For the same molecule, the “Sugarbeets plant response rating (0 to 10 scale)” value (sugar beet; Preemergence, Rate 250 g/ha) was 0, the “Sugarbeets plant response rating” value (sugar beet; [6]) was 3 and the “Plant response rating, Sugarbeets” value (sugar beet; [9]) was 0. For the same molecule, the “Plant response rating, Wild oats” value (wild oat; [8]) was 0, the “Wild oats plant response rating” value (wild oat; [4]) was 0 and the “Wild oats plant response rating” value (wild oat; [5]) was 0. The “Wild oats plant response rating (0 to 10 scale)” value (wild oat; Preemergence, Rate 250 g/ha) was 0, the “Wild oats plant response rating” value (wild oat; [6]) was 3 and the “Plant response rating, Wild oats” value (wild oat; [9]) was 0. For the same molecule, the “Bedstraw plant response rating” value (bedstraw; [10]) was 0, the “Bedstraw plant response rating” value (bedstraw; [11]) was 0 and the “Bedstraw plant response rating (0 to 10 scale)” value (bedstraw; Rate 250 g/ha) was 0. For the same molecule, the “Bedstraw plant response rating” value (bedstraw; [8]) was 0, the “Rape plant response rating” value (rape; [1]) was 0 and the “Rape plant response rating” value (rape; [2]) was 0. For the same molecule, the “Plant response rating, Rape” value (rape; [3]) was 3, the “Rape plant response rating” value (rape; [4]) was 0 and the “Rape plant response rating” value (rape; [5]) was 0. For the same molecule, the “Rape plant response rating (0 to 10 scale)” value (rape; Preemergence, Rate 250 g/ha) was 0, the “Rape plant response rating” value (rape; [6]) was 0 and the “Plant response rating, Rape” value (rape; [7]) was 0. The “Crabgrass plant response rating” value (crabgrass; [1]) was 0, the “Crabgrass plant response rating” value (crabgrass; [2]) was 2 and the “Plant response rating, Crabgrass” value (crabgrass; [3]) was 2. The “Crabgrass plant response rating” value (crabgrass; [4]) was 2, the “Crabgrass plant response rating” value (crabgrass; [5]) was 9 and the “Crabgrass plant response rating (0 to 10 scale)” value (crabgrass; Preemergence, Rate 250 g/ha) was 9. The “Crabgrass plant response rating” value (crabgrass; [6]) was 9, the “Plant response rating, Soybean” value (soybean; [8]) was 7 and the “Soybean plant response rating” value (soybean; [4]) was 0. The “Soybean plant response rating” value (soybean; [5]) was 0, the “Soybean plant response rating (0 to 10 scale)” value (soybean; Preemergence, Rate 250 g/ha) was 0 and the “Soybean plant response rating” value (soybean; [6]) was 0. The “Plant response rating, Soybean” value (soybean; [9]) was 6, the “Plant response rating, Wheat” value (wheat; [8]) was 2 and the “Wheat plant response rating” value (wheat; [4]) was 0. For the same molecule, the “Wheat plant response rating” value (wheat; [5]) was 0, the “Wheat plant response rating (0 to 10 scale)” value (wheat; Preemergence, Rate 250 g/ha) was 0 and the “Wheat plant response rating” value (wheat; [6]) was 0. For the same molecule, the “Plant response rating, Wheat” value (wheat; [9]) was 0, the “Cocklebur plant response rating” value (cocklebur; [1]) was 0 and the “Cocklebur plant response rating” value (cocklebur; [2]) was 2. The “Plant response rating, Cocklebur” value (cocklebur; [3]) was 2, the “Cocklebur plant response rating” value (cocklebur; [4]) was 0 and the “Cocklebur plant response rating” value (cocklebur; [5]) was 0. The “Cocklebur plant response rating (0 to 10 scale)” value (cocklebur; Preemergence, Rate 250 g/ha) was 0, the “Cocklebur plant response rating” value (cocklebur; [6]) was 0 and the “Plant response rating, Cocklebur” value (cocklebur; [7]) was 2. The “Plant response rating, Redroot pigweed” value (pigweed; [8]) was 5, the “Redroot pigweed plant response rating” value (pigweed; [10]) was 0 and the “Redroot pigweed plant response rating” value (pigweed; [11]) was 0. For the same molecule, the “Redroot pigweed plant response rating” value (pigweed; [8]) was 9, the “Plant response rating, Redroot pigweed” value (pigweed; [9]) was 0 and the “Blackgrass plant response rating” value (blackgrass; [1]) was 2. For the same molecule, the “Blackgrass plant response rating” value (blackgrass; [2]) was 6, the “Blackgrass plant response rating” value (blackgrass; [4]) was 0 and the “Blackgrass plant response rating” value (blackgrass; [5]) was 0. The “Blackgrass plant response rating (0 to 10 scale)” value (blackgrass; Preemergence, Rate 250 g/ha) was 2, the “Blackgrass plant response rating” value (blackgrass; [6]) was 2 and the “Plant response rating, Blackgrass” value (blackgrass; [7]) was 6.
